Here are results for 1 molecule from patent publication EP4582087A1, “PHARMACEUTICAL COMPOSITION FOR TREATING LYMPHOMA” (SymBio Pharmaceuticals Limited, priority 2022, dated 2024).

Each structure is given as a SMILES string.

The test system of data set [1] is LMP1. Put plainly: Western blot of LMP1 expression in lymphoma cells. As to conditions: NK-S1 and KAI-3; 0.1 and 1 µg/mL BCV for 72 hours; Fig. 4. It is filed as cell-based. How it is done:
(§1) NK-S1 and KAI-3 cell lines were treated with 0.1 and 1 µg/mL BCV for 72 hours. Subsequently, whole-cell lysates were separated by SDS-PAGE using 4 to 15% Mini-PROTEAN™ TGX Stain-Free™ Protein Gel (Bio-Rad Laboratories, Inc., Hercules, CA, USA) and then transferred to a 0.2 µm PVDF membrane (Bio-Rad Laboratories, Inc., Hercules, California, USA). The membrane was blocked and then gently shaken overnight at 4°C in a solution containing 5% skimmed milk powder (Bio-Rad Laboratories, Inc., Hercules, CA, USA) or 5% bovine serum albumin (Sigma-Aldrich, Darmstadt, Germany), TBST solution (50 mM Tris/HCl, pH 7.4, 150 mM NaCl, 0.1% Tween-20), and primary antibodies (anti-EBNA1 antibody (Santa Cruz Biotechnology, Inc.) and anti-LMP1 antibody (Dako)). Exposure to an appropriate HRP-conjugated anti-mouse antibody (Cytiva, Washington D.C., USA) was performed for 1 hour. Finally, chemiluminescent detection was performed using SuperSignal Substrate Western Blotting Kit (Thermo Fisher Scientific Inc., Massachusetts, USA). Imaging was performed using ChemiDoc™ XRS+ (a system with Image Lab™ software, Bio-Rad Laboratories, Inc., Hercules, California, USA).
(In general: In western blotting, separated proteins are transferred to a membrane and probed.)

Data set [2] relates to calreticulin. Kind of data set: Immunogenic cell death: calreticulin staining by flow cytometry. It is filed as cell-based. As to conditions: NK-S1 and KAI-3; BCV 0.1 ug/mL or 1 ug/mL for 72 hours; Fig. 6. As for the experimental part: (§2) NK-S1 and KAI-3 cell lines were treated with BCV (0.1 ug/mL or 1 ug/mL) or DMSO alone for 72 hours. For calreticulin staining, cells were incubated with a calreticulin antibody (1:100, room temperature, 30 minutes) (#ab92516, Abcam Limited.) and washed prior to analysis. Then, the cells were resuspended in PBS and analyzed using a cell analyzer (BD LSR Fortessa, BD Biosciences, San Jose, CA, USA). Data were analyzed using FlowJo version 10.8.0 (BD Biosciences, San Jose, California). The extracellular level of HMGB1 in the case of BCV treatment was measured using Lumit HMGB1 immunoassay (Promega Corporation, Madison, Wisconsin, USA).
(In flow cytometry, cells or beads pass a laser one at a time.)

Data set [3] has as its system MYC-positive lymphoma cells (Raji, Daudi, VAL, BJAB, DB). Put plainly: Cell viability (CellTiter-Glo 2.0), MYC-positive B-cell lymphoma cell lines. As to conditions: 96 hours, Fig. 8. Type of data set: cell-based. How it is done: Different B-cell lymphoma cell lines were individually treated with each concentration of BCV for 96 hours. Cell viability was quantified using Promega CellTiter-Glo (registered trademark) 2.0 Cell Viability Assay (Promega Corporation, Madison, Wisconsin, USA) according to the manufacturer's protocol. Information on the presence or absence of EBV and the molecular information were obtained by referring to a public database. The cell lines shown in Fig. 8 have been reported to be classified into groups as follows: Raji and Daudi as Burkitt's lymphoma (BL) cell lines; VAL and DB as diffuse large B-cell lymphoma (DLBCL) cell lines; and BJAB as a BL cell line or a DLBCL cell line. All of these are B lymphomas in which MYC is either translocated or amplified. Raji, Daudi, and VAL are EBV-positive cell lines, while BJAB and DB are EBV-negative cell lines. VAL is triple-hit lymphoma and DB is double-hit lymphoma.
Background: Cellular ATP, detected with luciferase, serves as a proxy for viable cell number.

Data set [4] concerns STING pathway. Put plainly: Whole transcriptome sequencing / GSEA / quantitative PCR, STING pathway genes. As to conditions: NK-S1 and KAI-3; BCV 0.1 µg/mL and 1 µg/mL; Figs. 5B and 5C. Type of data set: cell-based. How it is done:
(§3) BCV-treated NK-S1 and KAI-3 cell lines were subjected to sequencing of the entire transcription product. Gene set enrichment analysis (GSEA) was performed using the Molecular Signatures Database (MSigDB) Hallmark gene set. […] Quantitative PCR was performed using Maxima SYBR Green/ROX qPCR Master Mix (Thermo Scientific, USA). The ΔCt value of a gene's mRNA expression was calculated as the difference between the Ct value of the gene and that of an internal control, GAPDH. The ΔΔCt was calculated by subtracting the ΔCt value of the treatment group from the ΔCt value of an untreated control group. The fold change in expression was calculated using the formula 2^ΔΔCt.

Data set [5] concerns HMGB1. Put plainly: Immunogenic cell death: extracellular HMGB1 (Lumit HMGB1 immunoassay). Particulars: NK-S1 and KAI-3; BCV treatment; Fig. 6. Type of data set: cell-based. How it is done:
as §2

Data set [6] has as its system EBV-positive NK/T lymphoma cells (NK-S1). Put plainly: Cell viability (CellTiter-Glo 2.0), comparison with antiviral agents. Type of data set: cell-based. As to conditions: compared to acyclovir, ganciclovir, adefovir, foscarnet, and penciclovir, Fig. 2. As for the experimental part:
(§4) Cell viability was determined using Promega CellTiter-Glo (registered trademark) 2.0 Cell Viability Assay (Promega Corporation, Madison, Wisconsin, USA) according to the manufacturer's protocol. Specifically, lymphoma cells were plated in a 96-well plate at a concentration of 2 × 10^3 cells per 100 µL of culture medium, and a drug (BCV) was added to each well at each concentration. At each time point, Promega CellTiter-Glo (registered trademark) 2.0 Cell Viability Assay reagent was added to the wells and incubated at room temperature for 10 minutes. Subsequently, […] was measured using a Tecan M200 Infinite 96-well plate reader and IControl software 1.6 (Tecan, Männedorf, Switzerland). Cell viability was evaluated as a percentage of a control absorbance. A dose-response curve was generated by plotting the percentage of viable cells against the drug concentration to analyze the growth-inhibitory effect. The IC50 values were estimated using GraphPad Prism version 8.0.2 (GraphPad Software). All reactions were performed in triplicate (n = 3). Furthermore, EBV positivity or EBV negativity of the cells was detected based on the presence or absence of an EBV-derived transcript (e.g., EBER, EBNA1, and the like).
The experimental procedure was the same as in Example 1, except that BCV, acyclovir, ganciclovir, adefovir, foscarnet, and penciclovir were used as the drugs.

Data set [7] deals with NK/T lymphoma cells (KAI-3, NK-S1, KHYG-1). Put plainly: Cell viability (CellTiter-Glo 2.0), NK/T lymphoma cell proliferation. It is filed as cell-based. Particulars: Fig. 1. How it is done:
as §4

Data set [8] deals with NK-S1 cell line. Kind of data set: Combined treatment cell viability (CellTiter-Glo 2.0), Chou-Talalay combination index. Type of data set: cell-based. As to conditions: for type of combined effect based on the combination index value: CI less than 1 indicates synergism; for effect of combined treatment compared to each drug alone: Fig. 7. As for the experimental part:
NK-S1 cell line was treated with a selected dose of etoposide, gemcitabine, or gamma irradiation, with or without BCV (0.1 µg/mL). Cell viability was quantified using Promega CellTiter-Glo (registered trademark) 2.0 Cell Viability Assay (Promega Corporation, Madison, Wisconsin, USA) according to the manufacturer's protocol. A combination index (CI) was calculated using Chou-Talalay median-effect analysis to determine if the effect was synergism, an additive effect, or antagonism. Specifically, a CI value less than 1 indicates synergism, and a CI value more than 1 indicates antagonism. A CI value close to 1 (i.e., between 0.9 and 1.1) was considered indicative of an additive effect.

Data set [9] relates to EBNA1. Put plainly: Western blot of EBNA1 expression in lymphoma cells. Type of data set: cell-based. As to conditions: NK-S1 and KAI-3; 0.1 and 1 µg/mL BCV for 72 hours; Fig. 4. As for the experimental part:
as §1

In data set [10] the test system is eleven NK/T lymphoma cell lines (KAI-3, NK-S1, NK-92, KHYG-1, NK-YS, MEC-04, SNK-1, SNK-6, YT, HANK-1, or SNT-8). Put plainly: Cell viability (CellTiter-Glo 2.0), eleven NK/T lymphoma cell lines. Type of data set: cell-based. Particulars: Fig. 9. As for the experimental part: The effect of BCV on cell viability was examined in eleven NK/T lymphoma cell lines (KAI-3, NK-S1, NK-92, KHYG-1, NK-YS, MEC-04, SNK-1, SNK-6, YT, HANK-1, or SNT-8). Cell viability was quantified using Promega CellTiter-Glo (registered trademark) 2.0 Cell Viability Assay (Promega Corporation, Madison, Wisconsin, USA) according to the manufacturer's protocol. In brief, cells were plated in a 96-well plate at a concentration of 2 × 10^3 cells per 100 µL of culture medium, and a drug was added at each concentration. After each time point, Promega CellTiter-Glo (registered trademark) 2.0 Cell Viability Assay reagent was added to the wells and incubated at room temperature for 10 minutes. Subsequently, […] was measured using a Tecan M200 Infinite 96-well plate reader and iControl software 1.6 (Tecan, Männedorf, Switzerland). Cell viability was calculated as a percentage of the control absorbance. A dose-response curve was generated by plotting the percentage of viable cells against the drug concentration to analyze the growth-inhibitory effect. The IC50 values were estimated using GraphPad Prism version 8.0.2 (GraphPad Software). All reactions were performed in triplicate (n = 3).

The test system of data set [11] is EBV-positive NK/T lymphoma. Put plainly: In vivo drug treatment of mice inoculated with NK-S1 cells. Particulars: 40 mg/kg intraperitoneally twice weekly. Also noted: species or system NSG mice. How it is done: In in vivo drug treatment with BCV, 6-week-old female NSG mice were inoculated with 0.5 × 10^6 cells (NK-S1), and BCV or a control solvent was administered intraperitoneally at a dosage of 40 mg/kg twice weekly. Tumor measurements were recorded twice weekly until the tumor size in the control group reached approximately 2000 mm^3. Mice were euthanized according to the IACUC guideline. The tumor sizes of the experimental group and the control group (n = 8 per group) were averaged at each time point (Days 1, 5, 8, 12, and 15) and compared statistically. Throughout the experiment, signs of toxicity including diarrhea and weight loss were monitored.

The test system of data set [12] is Myc. Put plainly: Whole transcriptome sequencing / GSEA / quantitative PCR, Myc expression. It is filed as cell-based. Particulars: NK-S1 and KAI-3. As for the experimental part:
as §3

Setting [13] is: BCV 0.1 µg/mL combined with etoposide.
Where [14] appears, read: BCV 0.1 µg/mL combined with gemcitabine.

Take `CCCCCCCCCCCCCCCCOCCCOP(=O)(O)CO[C@H](CO)Cn1ccc(N)nc1=O` [BCV, [(2S)-1-(4-amino-2-oxopyrimidin-1-yl)-3-hydroxypropan-2-yl]oxymethyl-(3-hexadecoxypropoxy)phosphinic acid]: the “expression level of LMP1” value in [1] is recorded as “reduced the expression level”. Besides, the “number of calreticulin-positive cells” value in [2] is recorded as “clearly increased”. Moreover, the “growth-suppressive effect on EBV-positive cells and EBV-negative cells” value in data set [3] (EBV-positive Raji, EBV-negative BJAB) was “strong growth-suppressive effect on both EBV-positive cells and EBV-negative cells”. For the same molecule, in data set [3] (Raji, BJAB), the “cell growth-suppressive action on MYC-positive lymphoma cells” value is “distinct cell growth-suppressive action”. Also, the “expression of a gene group in the STING pathway” value in data set [4] is given as “increased”. In addition, in data set [5], the “release of HMGB1” value is on record as “clearly increased”. Also, in data set [6], the cell growth-suppressive effect entry is “significantly better cell growth-suppressive effect”. In addition, in data set [7] (EBV-positive (KAI-3 and NK-S1) versus EBV-negative (KHYG-1) NK/T lymphoma cells), the “IC50 value of cell growth-suppressive action” value is “significantly lower for EBV-positive NK/T lymphoma cells (KAI-3 and NK-S1) compared to EBV-negative NK/T lymphoma cells (KHYG-1)”. Besides, the “proliferation of NK/T lymphoma cells” value in data set [7] (KAI-3, NK-S1, KHYG-1) was “suppressed the proliferation of NK/T lymphoma cells”. In data set [8] (setting [13]), the “type of combined effect based on the combination index value” is recorded as “synergistic effect” and the “effect of combined treatment compared to each drug alone” value is reported as “significant enhancement of the effect”. Further, in data set [8] (setting [14]), the “type of combined effect based on the combination index value” is reported as “synergistic effect” and the “effect of combined treatment compared to each drug alone” value is recorded as “significant enhancement of the effect”. For the same molecule, the “expression level of EBNA1” value in [9] was “reduced the expression level”. For the same molecule, in data set [10] (four cell lines (KAI-3, NK-S1, NK-92, KHYG-1) versus the other seven cell lines), the IC50 values entry was “lower IC50 values compared to other cell lines”. The “sensitivity to BCV” value in [10] (four cell lines (KAI-3, NK-S1, NK-92, KHYG-1)) is on record as “high sensitivity to BCV”. Moreover, the “enlargement of EBV-positive NK/T lymphoma (tumor size)” value in [11] (NK-S1 in NSG mice, Days 1-15, Figs. 3A to 3D) is on record as “significantly suppressed the enlargement of EBV-positive NK/T lymphoma”. In addition, in data set [11] (NSG mice), the “animal's health status” value is listed as “good” and the “signs of toxicity: diarrhea” value is given as “no diarrhea observed”. Also, in [12] (BCV 0.1 µg/mL and 1 µg/mL, Fig. 5A), the Myc expression result is “significantly reduced Myc expression”. For the same molecule, the “expression of a gene group controlled by MYC” value in [12] (BCV-treated, Fig. 5) is reported as “significantly reduced the expression of a gene group controlled by MYC”.
